Patent US10633348B2, “Methods to treat lymphoplasmacytic lymphoma” (Dana-Farber Cancer Institute, Inc., priority 2013, dated 2020)

Experiments:
HCK = type: biochemical; conditions: read-out: HCK IC50 (nM) Inv
Source text: (§1) The in vitro activity of the compounds described herein in inhibiting TAK1, HCK and other kinases were obtained using an Invitrogen Select Screening assay as known in the art. The IC50 values determined from this assay are shown below.

TAK1 = type: biochemical
BCWM.1 = experiment: CellTiter-Glo cell viability assay; type: cell-based
Protocol: (§2) CellTiter-Glo® Luminescent cell viability assay (Promega) was used to assess cell survival following treatment with the compounds described. Cells were seeded into 384 well plates with the EL406 Combination Washer Dispenser (BioTek Instruments, Inc.) and the compounds were injected into the cells culture media with the JANUS Automated Workstation (PerkinElmer Inc.). Cells were treated with a series diluted inhibitors (20˜0.04 μM) for 72 hours at 37° C. Luminescent measurement is performed using the 2104 Envision® Multilabel Reader (PerkinElmer Inc.).

OCI-Ly7 = experiment: CellTiter-Glo cell viability assay; type: cell-based; conditions: Homo sapiens, 72 hours
Protocol: as §2

OCI-Ly3 = experiment: CellTiter-Glo cell viability assay; type: cell-based; conditions: Homo sapiens, OCI-Ly3, 72 h
Protocol: as §2

TMD8 = experiment: CellTiter-Glo cell viability assay; type: cell-based; conditions: Homo sapiens, 72 hours
Protocol: as §2

Abl = experiment: KiNativ kinase profiling in A375 cells; type: cell-based; conditions: 1 μM; A375 cells
FYN = experiment: KiNativ kinase profiling in A375 cells; type: cell-based; conditions: 1 μM; A375 cells
BTK-pY223 = experiment: PhosFlow; type: cell-based; conditions: BCWM.1, Hck-wt and Hck-mu BCWM.1 cells; 0.5 μM and 0.1 μM
Protocol: PhosFlow was performed to detect levels of phosphorylation for BTK-pY223 (BD Biosciences) and Hck-pY410 (Abcam) in BCWM.1 cells, in BCWM cells that stably overexpress HCK (BCWM.1_HCK-wt) and in BCWM.1 cells that stably overexpress the T338M mutant of HCK (BCWM.1_HCK-mu). Cells were fixed with BD Phosflow Fix Buffer I (BD Biosciences) at 37° C. for 10 min, then washed twice with BD Phosflow Perm/Wash Buffer I (BD Biosciences). Cells were suspended in BD Phosflow Perm/Wash Buffer I at 10 million/ml and antibodies aliquoted to flow tubes with 100 μl cells. Cells were incubated at room temperature for 30 min in the dark. Cells were washed twice with BD Phosflow Perm/Wash Buffer I before performing flow analysis using a BD™ FACSCanto II flow cytometer.

BTK = type: biochemical
Source text: as §1

ZAK = type: cell-based
LYN = type: cell-based
[1] = system: WM patient primary lymphoplasmacytic cells (LPCs); experiment: Apoptosis analysis (Annexin V/Propidium iodide); type: cell-based; conditions: for Apoptosis (%): 24 hours
Protocol: WM cells were treated with and without the compounds described herein. Cells were incubated at 37° C. with 0.01˜4 uM of the compounds described herein. Apoptosis analysis was performed using Annexin V/Propidium iodide staining with the Apoptosis Detection Kit I (BD Pharmingen). 1×10^6/well cells were treated in 24 well plates for ˜24 hours with inhibitors or corresponding controls. A minimum of 10,000 events were acquired using a BD™ FACSCanto II flow cytometer and analyzed with BD FACS DIVA Software.
Apoptosis analysis of WM patient primary lymphoplasmacytic cells (LPCs) was preformed following A-5 and A-14 treatment of Bone marrow mononuclear cells (BMMC) from WM patients for 24 hours. Apoptosis analysis was performed using Annexin V/Propidium iodide staining with the Apoptosis Detection Kit I (BD Pharmingen) in CD19-APC-cy7 antibody (BD Pharmingen) gated LPCs population.

Hck-pY410 = experiment: PhosFlow; type: cell-based; conditions: BCWM.1, Hck-wt and Hck-mu BCWM.1 cells; 0.5 μM and 0.1 μM
OCI-Ly19 = experiment: CellTiter-Glo cell viability assay; type: cell-based; conditions: Homo sapiens, OCI-LY19, 72 h
Protocol: as §2

MWCL-1 = experiment: CellTiter-Glo cell viability assay; type: cell-based; conditions: 72 h
Protocol: as §2

Ramos = experiment: CellTiter-Glo cell viability assay; type: cell-based; conditions: Homo sapiens, 72 h
Protocol: as §2

[2] = Isobolograms, synergy with a BTK inhibitor; conditions: FIG. 1
Source text: Points below the 1 to 1 line connecting the X and Y axes are ‘synergistic’, points near the line are ‘additive’, and points above it are antagonistic.

CCN1CCN(Cc2ccc(NC(=O)c3ccc(C)c(Oc4cc(Nc5cncnc5)ncn4)c3)cc2C(F)(F)F)CC1 [(A-8), N-(4-((4-ethylpiperazin-1-yl)methyl)-3-(trifluoromethyl)phenyl)-4-methyl-3-((6-(pyrimidin-5-ylamino)pyrimidin-4-yl)oxy)benzamide]
IC50 (HCK): 889 nM
IC50 (TAK1): 487 nM

CCN1CCN(Cc2ccc(NC(=O)c3ccc(C)c(Oc4cc(Nc5cnn(C)c5)ncn4)c3)cc2C(F)(F)F)CC1 [(A-5), N-(4-((4-ethylpiperazin-1-yl)methyl)-3-(trifluoromethyl)phenyl)-4-methyl-3-((6-((1-methyl-1H-pyrazol-4-yl)amino)pyrimidin-4-yl)oxy)benzamide]
EC50 (BCWM.1; 72 hours): 72 nM
EC50 (BCWM.1; BCWM1, 72 h): 51 nM
EC50 (OCI-Ly7): 655 nM
EC50 (OCI-Ly3): 4710 nM
EC50 (TMD8): 132 nM
Abl inhibition (Abl): > 90%
FYN inhibition (FYN): 71.2%
BTK phosphorylation (BTK-pY223): inhibit
IC50 (BTK): > 10000 nM
ZAK inhibition (ZAK): 75.7%
LYN inhibition (LYN): 87.8%
Apoptosis (%) ([1]; Patient 1, 1.0 μM): 57.7%
Apoptosis (%) ([1]; Patient 2, 1.0 μM): 28.9%
Apoptosis (%) ([1]; Patient 3, 1.0 μM): 29.48%
Apoptosis (%) ([1]; Patient 4, 1.0 μM): 48.56%
Apoptosis (%) ([1]; Patient 5, 0.5 μM): 23.25%
Apoptosis (%) ([1]; Patient 5, 1.0 μM): 30.5%
Apoptosis (%) ([1]; Patient 6, 1.0 μM): 17.82%
Apoptosis (%) ([1]; Patient 7, 0.5 μM): 17.23%
Apoptosis (%) ([1]; Patient 7, 1.0 μM): 18.2%
Apoptosis (%) ([1]; Patient 8, 0.5 μM): 11.04%
Apoptosis (%) ([1]; Patient 8, 1.0 μM): 17.31%
Apoptosis (%) ([1]; Patient 10, 0.2 μM): 21.5%
Apoptosis (%) ([1]; Patient 10, 1.0 μM): 28.7%
Apoptosis (%) ([1]; Patient 11, 0.2 μM): 30.2%
Apoptosis (%) ([1]; Patient 11, 1.0 μM): 47%
apoptosis compared with DMSO control ([1]; WM patient primary LPCs): induced significant apoptosis
Hck phosphorylation (Hck-pY410): inhibit

C=CC(=O)Nc1cc(Oc2cc(C(=O)Nc3ccc(CN4CCN(CC)CC4)c(C(F)(F)F)c3)ccc2C)ncn1 [(A-17), 3-((6-acrylamidopyrimidin-4-yl)oxy)-N-(4-((4-ethylpiperazin-1-yl)methyl)-3-(trifluoromethyl)phenyl)-4-methylbenzamide]
EC50 (OCI-Ly19): 188 nM
EC50 (BCWM.1; BCWM1, 72 h): 8 nM
EC50 (MWCL-1): 202 nM
EC50 (Ramos): 389 nM
EC50 (OCI-Ly3): 247 nM
IC50 (BTK): 3380 nM
synergy between compound and a BTK inhibitor (isobolograms) [2]: synergy
